Like-named read-outs stand apart in the source and are kept apart here.

The subject of this experiment is Eimeria tenella. The experiment in a line: Inhibitory effects of the derivatives on Eimeria tenella of chicken (60 ppm in feed). The format is in vivo. The note with it: for responders at 60 ppm, 60 µg/mL / response vs control in vivo at 60 ppm, 60 µg/mL: Eimeria tenella, 168 h; for responders at 60 ppm, 60 µg/mL: read-out: Survival rate (%); for response vs control in vivo at 60 ppm, 60 µg/mL: relative to group 1 (not infected, not treated), read-out: Relative weight gain (%); for Score (bloody stool score): 5 days after inoculation. An excerpt: One-day-old yellow-feather fast-growing broilers were raised in a coccidia-free environment, and divided into groups for trial at the age of 18 days when no coccidian oocysts were detected by microscopy in their faeceas. Weak or overweight broilers were removed, and healthy broilers were divided into 30 groups with 50 broilers in each group and weight difference between each two broilers was below 20 g. Groups 1 and 2 were respectively a control group that the broilers were neither infected nor treated, and a control group that the broilers were infected but not treated. Groups 3 to 30 were respectively administrated with different derivatives. The broilers were given ad libitum access to feed and water when the feed was added with different medicines according to Table 1 at the day the broilers were divided. 24 Hours after the trial began, 250,000 sporulated Eimeria tenella oocysts were inoculated via an oral gavage into the crop of every broiler in each group except group 1. Bloody stool score was measured 5 days after the inoculation and the trial was ended 7 days after the inoculation. Relative weight gain (%), survival rate (%) and the bloody stool score were evaluated.
Bloody stool score: 0, no bloody stool was observed; 1, bloody stool below 25%; 2, 25 to 50% of bloody stool; 3, 50 to 75% of bloody stool; and 4, bloody stool over 75%.
Relative weight gain (%): The broilers were weighed at the beginning and the end of the trial to calculate the average weight gain and relative weigh gain. Relative weight gain=(average weight gain of each group/average weight gain of group 1)×100%.
Deaths of the broilers: Necropsy was performed and the amount of dead broilers in each group was recorded to calculate the survival rate. Survival rate=(total amount of the broilers in each group−amount of deaths caused by coccidial infection)/total amount of the broilers in each group×100%.

[1] abbreviates: broilers, 60 ppm in feed, 250,000 E. tenella oocysts, 7 days after inoculation.
Where [2] appears, read: broilers, 60 ppm in feed, 250,000 E. tenella oocysts.

As for `COc1ccc(Cn2cnc(C(N)=O)c2C(N)=O)cc1` [IST15053, 1-(4-methoxybenzyl)-1H-imidazole-4,5-dicarboxamide], under setting [1], the responders at 60 ppm, 60 µg/mL was found to be 100%. Further, under setting [2], the response vs control in vivo at 60 ppm, 60 µg/mL is 82.5% and the “Score (bloody stool score)” value was 3 (50 to 75% of bloody stool).
On the same counts, the results for `NC(=O)c1ncn(Cc2ccc(F)cc2)c1C(N)=O` [IST15042, 1-(4-fluorobenzyl)-1H-imidazole-4,5-dicarboxamide] are 100%, 81.2% and 3 (50 to 75% of bloody stool).
With `O=C1NC(=O)c2[nH]cnc21` [IST15015, pyrrolo[3,4-d]imidazole-4,6(1H,5H)-dione], under setting [1], the responders at 60 ppm, 60 µg/mL was found to be 100%. Under setting [2], the response vs control in vivo at 60 ppm, 60 µg/mL is 72.5% and the “Score (bloody stool score)” value was 4 (bloody stool over 75%).
On the same counts, the results for `NC(=O)c1ncn(Cc2cccc(Cl)c2)c1C(N)=O` [IST15041, 1-(3-chlorobenzyl)-1H-imidazole-4,5-dicarboxamide] are 100%, 85.4% and 3 (50 to 75% of bloody stool).
As to `CC(C)n1cnc(C(N)=O)c1C(N)=O` [IST15115, 1-isopropyl-1H-imidazole-4,5-dicarboxamide], the responders at 60 ppm, 60 µg/mL under setting [1] stood at 100%. Also, under setting [2], the response vs control in vivo at 60 ppm, 60 µg/mL turned out to be 85.9% and the “Score (bloody stool score)” value is recorded as 3 (50 to 75% of bloody stool).
Turning to `CCCCN1C(=O)c2nc[nH]c2C1=O` [IST15013, 5-butylpyrrolo[3,4-d]imidazole-4,6(1H,5H)-dione], the responders at 60 ppm, 60 µg/mL under setting [1] is 100%. Also, under setting [2], the response vs control in vivo at 60 ppm, 60 µg/mL was determined as 88.8% and the “Score (bloody stool score)” value is on record as 3 (50 to 75% of bloody stool).
Regarding `O=C(Nc1ccc([N+](=O)[O-])cc1)c1nc[nH]c1C(=O)Nc1ccc([N+](=O)[O-])cc1` [IST15009, N^4,N^5-bis(4-nitrophenyl)-1H-imidazole-4,5-dicarboxamide], the responders at 60 ppm, 60 µg/mL is 100%. Further, under setting [2], the response vs control in vivo at 60 ppm, 60 µg/mL came out at 82.6% and the “Score (bloody stool score)” value is 3 (50 to 75% of bloody stool).
Consider `CC(=O)NC(=O)c1ncn(Cc2ccc(Cl)cc2)c1C(=O)NC(C)=O` [IST15151, N^4,N^5-diacetyl-1-(4-chlorobenzyl)-1H-imidazole-4,5-dicarboxamide], for which the responders at 60 ppm, 60 µg/mL under setting [1] is 100%. Under setting [2], the response vs control in vivo at 60 ppm, 60 µg/mL came to 83.6% and the “Score (bloody stool score)” value is 3 (50 to 75% of bloody stool).
For `CCn1cnc(C(=O)NC(C)=O)c1C(=O)NC(C)=O` [IST15165, N^4,N^5-diacetyl-1-ethyl-1H-imidazole-4,5-dicarboxamide], under setting [1], the responders at 60 ppm, 60 µg/mL came to 100%. Moreover, under setting [2], the response vs control in vivo at 60 ppm, 60 µg/mL was found to be 89.7% and the “Score (bloody stool score)” value was 2 (25 to 50% of bloody stool).
With `CS(=O)(=O)c1ccc(Cn2cnc(C(N)=O)c2C(N)=O)cc1` [IST15150, 1-(4-(methylsulfonyl)benzyl)-1H-imidazole-4,5-dicarboxamide], the responders at 60 ppm, 60 µg/mL under setting [1] amounted to 100%. Further, under setting [2], the response vs control in vivo at 60 ppm, 60 µg/mL was determined as 86.3% and the “Score (bloody stool score)” value is recorded as 2 (25 to 50% of bloody stool).
`Cc1ccc(Cn2cnc(C(N)=O)c2C(N)=O)cc1` [IST15046, 1-(4-methylbenzyl)-1H-imidazole-4,5-dicarboxamide]: the responders at 60 ppm, 60 µg/mL under setting [1] came to 100%. Further, under setting [2], the response vs control in vivo at 60 ppm, 60 µg/mL turned out to be 78.4% and the “Score (bloody stool score)” value is recorded as 3 (50 to 75% of bloody stool).
For the compound `CCC(=O)NC(=O)c1ncn(Cc2ccc(Cl)cc2)c1C(=O)NC(=O)CC` [IST15152, 1-(4-chlorobenzyl)-N^4,N^5-dipropionyl-1H-imidazole-4,5-dicarboxamide], the responders at 60 ppm, 60 µg/mL under setting [1] came out at 100%. Besides, under setting [2], the response vs control in vivo at 60 ppm, 60 µg/mL came to 85.6% and the “Score (bloody stool score)” value is reported as 3 (50 to 75% of bloody stool).

(Values after US10435376B2, “Derivatives of 1H-imidazole-4,5-dicarboxamide and use thereof in preparation of anticoccidial drugs” (GUANGZHOU INSIGHTER BIOTECHNOLOGY CO., LTD., priority 2015, dated 2019).)
